The source of these data is PubChem BioAssay AID1745844 (Carcinogenic Potency Database (CPDB), 2022).

Active and inactive are the calls of the source. No rule for the calls is given here.

The test system of the series is rodent lifetime carcinogenesis bioassay, tumor incidence TD50. Briefly: chronic cancer bioassays in animals – CPDB, compiled studies (AID 1745844).
The mark [1] stands for this setting: mouse, strain B6C3F1, females, in feed, site: any site (literature study), lesion: several types, types named in the paper, dosed 103 weeks, study length 105 weeks.
Where [2] appears, read: mouse, strain B6C3F1, females, in feed, site: liver, lesion: hepatocellular adenoma + hepatocellular carcinoma + neoplastic nodule, dosed 103 weeks, study length 105 weeks.

By TD50 is commonly meant the 50% point of the dose-response relation for the toxic effect studied. As to `BrC(Br)Br`, the TD50 is, setting by setting: (mouse, strain B6C3F1, females, by gavage, site: liver + spleen, lesion: hemangiosarcoma, dosed 103 weeks, study length 106 weeks) 1110 mg/kg/day (inactive); (mouse, strain B6C3F1, females, by gavage, site: liver, lesion: hepatocellular adenoma + hepatocellular carcinoma + neoplastic nodule, dosed 103 weeks, study length 106 weeks) 570 mg/kg/day; (mouse, strain B6C3F1, males, by gavage, site: any site (literature study), lesion: several types, types named in the paper, dosed 103 weeks, study length 106 weeks) 41 mg/kg/day; (mouse, strain B6C3F1, males, by gavage, site: liver, lesion: hepatocellular adenoma + hepatocellular carcinoma + neoplastic nodule, dosed 103 weeks, study length 106 weeks) 53.6 mg/kg/day; (mouse, strain B6C3F1, males, by gavage, site: lung, lesion: alveolar/bronchiolar adenoma + alveolar/bronchiolar carcinoma, dosed 103 weeks, study length 106 weeks) 2450 mg/kg/day; (mouse, strain B6C3F1, males, by gavage, site: subcutaneous tissue, lesion: fibrosarcoma + sarcoma, dosed 103 weeks, study length 106 weeks) 81.9 mg/kg/day (inactive). The TD50 (rat, strain Fischer 344, females, by gavage, site: large intestine, lesion: adenocarcinoma + polypoid adenoma, dosed 103 weeks, study length 106 weeks) is 469 mg/kg/day; the TD50 (rat, strain Fischer 344, females, by gavage, site: large intestine, lesion: polypoid adenoma, dosed 103 weeks, study length 106 weeks) was 632 mg/kg/day; the TD50 (rat, strain Fischer 344, females, by gavage, site: liver, lesion: hepatocellular adenoma + hepatocellular carcinoma + neoplastic nodule, dosed 103 weeks, study length 106 weeks) was 676 mg/kg/day; the TD50 (rat, strain Fischer 344, males, by gavage, site: any site (literature study), lesion: several types, types named in the paper, dosed 103 weeks, study length 105 weeks) came out at 513 mg/kg/day; the TD50 (rat, strain Fischer 344, males, by gavage, site: large intestine, lesion: adenocarcinoma + polypoid adenoma, dosed 103 weeks, study length 105 weeks) was 1050 mg/kg/day; the TD50 (rat, strain Fischer 344, males, by gavage, site: testis, lesion: interstitial-cell adenoma, bilateral + interstitial-cell adenoma, dosed 103 weeks, study length 105 weeks) came out at 75 mg/kg/day. This compound came in with a TD50 (rat, strain Fischer 344, males, by gavage, site: thyroid gland, lesion: follicular-cell carcinoma, dosed 103 weeks, study length 105 weeks) of 656 mg/kg/day.
As for `Cc1c(N)cccc1N`, the TD50 is, setting by setting: under setting [1], 75.9 mg/kg/day; under setting [2], 129 mg/kg/day; (mouse, strain B6C3F1, females, in feed, site: liver, lesion: hepatocellular carcinoma, dosed 103 weeks, study length 105 weeks) 181 mg/kg/day (inactive); (mouse, strain B6C3F1, males, in feed, site: all sites, lesion: lymphoma, dosed 103 weeks, study length 104 weeks) 20.5 mg/kg/day (inactive); (rat, strain Fischer 344, females, in feed, site: liver, lesion: hepatocellular adenoma + hepatocellular carcinoma + neoplastic nodule, dosed 103 weeks, study length 105 weeks) 455 mg/kg/day; (rat, strain Fischer 344, males, in feed, site: liver, lesion: hepatocellular adenoma + hepatocellular carcinoma + neoplastic nodule, dosed 103 weeks, study length 104 weeks) 117 mg/kg/day. Moreover, the TD50 (rat, strain Fischer 344, males, in feed, site: liver, lesion: hepatocellular carcinoma + neoplastic nodule, dosed 103 weeks, study length 104 weeks) is 117 mg/kg/day (inactive) and the TD50 (rat, strain Fischer 344, males, in feed, site: pancreatic islets, lesion: islet-cell adenoma, dosed 103 weeks, study length 104 weeks) stood at 140 mg/kg/day. In addition, for the setting “rat, strain Fischer 344, females, in feed, site: any site (literature study), lesion: several types, types named in the paper, dosed 103 weeks, study length 105 weeks”, the carcinogen call is “negative (inactive)”.
Consider `Nc1ccc(O)c([N+](=O)[O-])c1`, for which the carcinogen call under setting [1] was “negative (inactive)” and the carcinogen call (mouse, strain B6C3F1, males, in feed, site: any site (literature study), lesion: several types, types named in the paper, dosed 103 weeks, study length 105 weeks) is “negative (inactive)”. Further, the TD50 reads like this: under setting [2], 3650 mg/kg/day; (mouse, strain B6C3F1, males, in feed, site: liver, lesion: hepatocellular adenoma + hepatocellular carcinoma + neoplastic nodule, dosed 103 weeks, study length 105 weeks) 2250 mg/kg/day; (rat, strain Fischer 344, females, in feed, site: urinary bladder, lesion: transitional-cell carcinoma, dosed 103 weeks, study length 105 weeks) 1880 mg/kg/day; (rat, strain Fischer 344, males, in feed, site: any site (literature study), lesion: several types, types named in the paper, dosed 103 weeks, study length 105 weeks) 270 mg/kg/day; (rat, strain Fischer 344, males, in feed, site: urinary bladder, lesion: transitional-cell carcinoma, dosed 103 weeks, study length 105 weeks) 309 mg/kg/day.
Regarding `O=C1CCCCC1`, the TD50 reads like this: (mouse, strain B6C3F1, females, in drinking water, site: all sites, lesion: malignant lymphoma, dosed 104 weeks, study length 107 weeks) 3690 mg/kg/day; (rat, strain Fischer 344, females, in drinking water, site: liver, lesion: neoplastic nodule, dosed 104 weeks, study length 107 weeks) 6300 mg/kg/day; (rat, strain Fischer 344, males, in drinking water, site: adrenal gland, lesion: cortical adenoma, dosed 104 weeks, study length 107 weeks) 929 mg/kg/day.
Turning to `Cc1cccc2ccccc12`, the TD50 reads like this: (mouse, strain B6C3F1, females, in feed, site: liver, lesion: hepatocellular adenoma, dosed 81 weeks, study length 81 weeks) 979 mg/kg/day; (mouse, strain B6C3F1, females, in feed, site: liver, lesion: hepatocellular carcinoma, dosed 81 weeks, study length 81 weeks) 6040 mg/kg/day; (mouse, strain B6C3F1, males, in feed, site: any site (literature study), lesion: one or several types, types not named, dosed 81 weeks, study length 81 weeks) 2260 mg/kg/day; (mouse, strain B6C3F1, males, in feed, site: lung, lesion: alveolar/bronchiolar adenoma, dosed 81 weeks, study length 81 weeks) 244 mg/kg/day; (mouse, strain B6C3F1, males, in feed, site: lung, lesion: alveolar/bronchiolar carcinoma, dosed 81 weeks, study length 81 weeks) 1830 mg/kg/day; (mouse, strain B6C3F1, males, in feed, site: lung, lesion: several types, types named in the paper, dosed 81 weeks, study length 81 weeks) 201 mg/kg/day.
As for `O=C1c2ccccc2CN2C(=O)c3ccccc3CN12`, the TD50 was 7130 mg/kg/day (mouse, strain BALB/cLacDp, females, in feed, site: liver, lesion: angioma, dosed 80 weeks, study length 119 weeks); 852 mg/kg/day (mouse, strain BALB/cLacDp, females, in feed, site: liver, lesion: angiosarcoma, dosed 80 weeks, study length 119 weeks); 1150 mg/kg/day (mouse, strain BALB/cLacDp, females, in feed, site: liver, lesion: hepatocellular adenoma, dosed 80 weeks, study length 119 weeks); 3540 mg/kg/day (mouse, strain BALB/cLacDp, females, in feed, site: liver, lesion: hepatocellular carcinoma, dosed 80 weeks, study length 119 weeks); 269 mg/kg/day (inactive) (mouse, strain BALB/cLacDp, females, in feed, site: lung, lesion: several types, types named in the paper, dosed 80 weeks, study length 119 weeks); 1370 mg/kg/day (mouse, strain BALB/cLacDp, males, in feed, site: liver, lesion: angioma, dosed 80 weeks, study length 119 weeks). The TD50 is 879 mg/kg/day (mouse, strain BALB/cLacDp, males, in feed, site: liver, lesion: angiosarcoma, dosed 80 weeks, study length 119 weeks) and 412 mg/kg/day (inactive) (mouse, strain BALB/cLacDp, males, in feed, site: lung, lesion: several types, types named in the paper, dosed 80 weeks, study length 119 weeks).
In the case of `C=CC(OCC)OCC`, the TD50 by setting is: (rat, strain Fischer 344, females, in drinking water, site: liver, lesion: hyperplastic nodule, dosed 102 weeks, study length 130 weeks) 131 mg/kg/day; (rat, strain Fischer 344, females, in drinking water, site: liver, lesion: several types, types named in the paper, dosed 102 weeks, study length 130 weeks) 123 mg/kg/day; (rat, strain Fischer 344, males, in drinking water, site: liver, lesion: hepatocellular carcinoma, dosed 102 weeks, study length 130 weeks) 262 mg/kg/day; (rat, strain Fischer 344, males, in drinking water, site: liver, lesion: hyperplastic nodule, dosed 102 weeks, study length 130 weeks) 266 mg/kg/day; (rat, strain Fischer 344, males, in drinking water, site: liver, lesion: several types, types named in the paper, dosed 102 weeks, study length 130 weeks) 124 mg/kg/day.
In the case of `CC(=O)NNC(=O)c1ccncc1`, the TD50 runs as follows: (mouse, strain Swiss albino, females, in drinking water, site: liver, lesion: several types, types named in the paper, dosed 94 weeks, study length 94 weeks) 55700 mg/kg/day; (mouse, strain Swiss albino, females, in drinking water, site: lung, lesion: several types, types named in the paper, dosed 94 weeks, study length 94 weeks) 319 mg/kg/day; (mouse, strain Swiss albino, males, in drinking water, site: lung, lesion: several types, types named in the paper, dosed 92 weeks, study length 92 weeks) 342 mg/kg/day. Further, the carcinogen call (mouse, strain Swiss albino, males, in drinking water, site: liver, lesion: hemangioma, dosed 92 weeks, study length 92 weeks) is “negative (inactive)”.
On to `Nc1nc(=S)c2ncn([C@H]3C[C@H](O)[C@@H](CO)O3)c2[nH]1`, for which the TD50 by setting is: (mouse, strain B6C3F1, females, i.p., site: any site (literature study), lesion: several types, types named in the paper, dosed 43 weeks, study length 77 weeks) 4.48 mg/kg/day; (mouse, strain B6C3F1, females, i.p., site: lung, lesion: alveolar/bronchiolar adenoma + alveolar/bronchiolar carcinoma, dosed 43 weeks, study length 77 weeks) 6.87 mg/kg/day; (rat, strain Sprague-Dawley, females, i.p., site: any site (literature study), lesion: several types, types named in the paper, dosed 52 weeks, study length 78 weeks) 4.11 mg/kg/day; (rat, strain Sprague-Dawley, females, i.p., site: ear canal, lesion: carcinoma, NOS + squamous-cell carcinoma, dosed 52 weeks, study length 78 weeks) 2.1 mg/kg/day; (rat, strain Sprague-Dawley, females, i.p., site: ear canal, lesion: squamous-cell carcinoma, dosed 52 weeks, study length 78 weeks) 2.31 mg/kg/day; (rat, strain Sprague-Dawley, males, i.p., site: all sites, lesion: lymphoma, dosed 52 weeks, study length 78 weeks) 5.75 mg/kg/day. In addition, the TD50 (rat, strain Sprague-Dawley, males, i.p., site: ear canal, lesion: carcinoma, NOS + squamous-cell carcinoma, dosed 52 weeks, study length 78 weeks) is 4.38 mg/kg/day.
For the compound `CN(N=O)c1ccc([N+](=O)[O-])cc1`, the carcinogen call (rat, strain Fischer 344, males, in drinking water, site: any site (literature study), lesion: several types, types named in the paper, dosed 50 weeks, study length 114 weeks) was “negative (inactive)”. The TD50 (rat, strain Fischer 344, males, in drinking water, site: liver, lesion: hyperplastic nodule, dosed 50 weeks, study length 114 weeks) is 5.87 mg/kg/day (inactive).
